Laboratory results: patent US20260125378A2, “Heterocyclic Compounds” (BeOne Medicines I GmbH, priority 2023, published 2026)

What was measured:
[1] = target: T1, Full length DGKζ (in-house protein M1-V929) (Homo sapiens, UniProt Q13574); test: Biochemical DGK IC50 assay (ADP-Glo, lipid micelle substrate), DGKζ; details: 1 hour preincubation, 1 hour reaction, room temperature
T1 construct: His (N); TEV site (N); made in house; host or cells: Sf9 insect cells (Bac-to-Bac baculovirus)
How it was run: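 Full-length human DGKζ (M1-V929, His-TEV tagged, Sf9 baculovirus-expressed) with DAG/PS lipid micelle substrate in octyl glucoside, at room temperature in 50 mM HEPES, 10 mM MgCl2, 0.01 mM CaCl2 buffer.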

[2] = target: T2, Full length DGKα (D21-10BG, SignalChem) (Homo sapiens, UniProt P23743); test: Biochemical DGK IC50 assay (ADP-Glo, lipid micelle substrate), DGKα; details: 1 hour preincubation, 1 hour reaction, room temperature
T2 construct: Full length DGKα (D21-10BG, SignalChem); purchased SignalChem D21-10BG
T2 sequence (P23743 whole entry): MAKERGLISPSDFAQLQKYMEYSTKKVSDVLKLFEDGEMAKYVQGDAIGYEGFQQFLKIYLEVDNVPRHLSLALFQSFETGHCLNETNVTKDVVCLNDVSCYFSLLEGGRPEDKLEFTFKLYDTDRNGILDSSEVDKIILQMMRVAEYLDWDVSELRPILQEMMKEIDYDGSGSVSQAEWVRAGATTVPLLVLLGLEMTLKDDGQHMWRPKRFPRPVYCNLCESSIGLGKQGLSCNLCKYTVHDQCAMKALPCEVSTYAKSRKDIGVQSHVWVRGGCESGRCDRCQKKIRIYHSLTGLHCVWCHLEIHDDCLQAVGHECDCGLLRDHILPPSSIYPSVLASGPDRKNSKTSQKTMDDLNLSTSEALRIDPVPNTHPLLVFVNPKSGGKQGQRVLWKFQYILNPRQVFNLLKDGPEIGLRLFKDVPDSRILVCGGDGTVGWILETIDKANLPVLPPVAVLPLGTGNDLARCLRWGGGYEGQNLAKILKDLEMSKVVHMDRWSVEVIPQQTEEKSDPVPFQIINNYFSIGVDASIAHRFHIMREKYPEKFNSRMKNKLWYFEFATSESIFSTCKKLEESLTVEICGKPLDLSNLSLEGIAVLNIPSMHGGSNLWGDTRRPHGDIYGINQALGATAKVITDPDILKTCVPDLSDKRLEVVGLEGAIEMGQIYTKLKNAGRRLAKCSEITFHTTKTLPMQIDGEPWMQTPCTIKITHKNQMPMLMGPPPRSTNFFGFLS
How it was run: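 Full-length human DGKα with DAG/PS lipid micelle substrate (in octyl glucoside buffer), reacted 1 h at room temperature in 50 mM HEPES, 10 mM MgCl2, 0.01 mM CaCl2, 0.1 mM Na3VO4, 0.01% BSA, 0.005% Tween-20. ADP formed read by ADP-Glo luminescence; IC50 from inhibition across increasing compound concentrations.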

T1 sequence (Q13574 1-929 isoform Q13574-4): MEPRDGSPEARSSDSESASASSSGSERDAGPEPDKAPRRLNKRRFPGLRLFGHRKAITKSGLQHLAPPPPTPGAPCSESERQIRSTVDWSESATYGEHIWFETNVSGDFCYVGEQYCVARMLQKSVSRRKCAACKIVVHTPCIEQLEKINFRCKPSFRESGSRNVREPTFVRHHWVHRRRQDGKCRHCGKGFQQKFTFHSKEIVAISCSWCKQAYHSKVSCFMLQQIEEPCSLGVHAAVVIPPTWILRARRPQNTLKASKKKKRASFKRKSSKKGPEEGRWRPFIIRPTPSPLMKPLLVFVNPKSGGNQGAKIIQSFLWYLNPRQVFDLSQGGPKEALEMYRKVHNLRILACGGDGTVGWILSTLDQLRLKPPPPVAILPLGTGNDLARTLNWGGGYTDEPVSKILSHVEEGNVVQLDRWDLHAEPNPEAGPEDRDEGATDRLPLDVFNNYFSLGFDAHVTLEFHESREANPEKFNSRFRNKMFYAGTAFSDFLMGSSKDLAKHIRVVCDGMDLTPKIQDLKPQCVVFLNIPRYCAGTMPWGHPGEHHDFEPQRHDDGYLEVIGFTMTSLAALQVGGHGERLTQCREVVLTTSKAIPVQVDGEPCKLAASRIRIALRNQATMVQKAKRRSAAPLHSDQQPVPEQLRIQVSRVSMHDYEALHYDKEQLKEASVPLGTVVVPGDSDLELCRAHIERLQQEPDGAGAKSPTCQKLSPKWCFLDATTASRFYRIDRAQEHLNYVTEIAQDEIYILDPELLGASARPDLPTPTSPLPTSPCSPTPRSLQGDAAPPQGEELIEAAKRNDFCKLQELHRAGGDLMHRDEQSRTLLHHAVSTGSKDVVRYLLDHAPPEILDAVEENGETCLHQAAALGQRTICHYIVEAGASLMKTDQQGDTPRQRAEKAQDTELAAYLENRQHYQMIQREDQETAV

Structure (SMILES) | IC50 [1] | IC50 [2]
CCn1c(CC#N)nc2c(N3C[C@@H](C)N(C(C)c4cccc(C5COC5)c4)C[C@@H]3C)nc(=O)n(C)c21 (stereo partly drawn) [Compound A127, 2-(6-((2S,5R)-2,5-dimethyl-4-(1-(3-(oxetan-3-yl)phenyl)ethyl)piperazin-1-yl)-9-ethyl-3-methyl-2-oxo-3,9-dihydro-2H-purin-8-yl)acetonitrile] | 0.428 µM | > 150 µM
CC(c1ccc2nccnc2c1)N1C[C@H](C)N(c2cc(=O)n(C)c3sc(CC#N)nc23)C[C@H]1C (mixture of isomers) [Compound A194, 2-(7-((2S,5R)-2,5-dimethyl-4-(1-(quinoxalin-6-yl)ethyl)piperazin-1-yl)-4-methyl-5-oxo-4,5-dihydrothiazolo[5,4-b]pyridin-2-yl)acetonitrile] | 0.007 µM | 4.08 µM
Cc1ccc(C(C)N2C[C@H](C)N(c3c(F)c(=O)n(C)c4c3nc(CC#N)n4C)C[C@H]2C)c(C(F)(F)F)c1 (single isomer, unassigned) [Compound A15b] | 0.291 µM | > 10 µM
CCn1c(CC#N)nc2c(N3C[C@@H](C)N(C(C)c4ccc5c(c4)OC(C)(C)O5)C[C@@H]3C)c(F)c(=O)n(C)c21 (stereo partly drawn) [Compound A188, 2-(7-((2S,5R)-4-(1-(2,2-dimethylbenzo[d][1,3]dioxol-5-yl)ethyl)-2,5-dimethylpiperazin-1-yl)-3-ethyl-6-fluoro-4-methyl-5-oxo-4,5-dihydro-3H-imidazo[4,5-b]pyridin-2-yl)acetonitrile] | 0.074 µM | > 150 µM
CCn1c(CC#N)nc2c(N3C[C@@H](C)N(C(C)c4ccc5sc(C)nc5c4)C[C@@H]3C)nc(=O)n(C)c21 (stereo partly drawn) [Compound A55, 2-(6-((2S,5R)-2,5-dimethyl-4-(1-(2-methylbenzo[d]thiazol-5-yl)ethyl)piperazin-1-yl)-9-ethyl-3-methyl-2-oxo-3,9-dihydro-2H-purin-8-yl)acetonitrile] | 0.031 µM | 68.7 µM
CCn1c(CC#N)nc2c(N3C[C@@H](C)N(C(C)c4csc(C(F)(F)F)n4)C[C@@H]3C)nc(=O)n(C)c21 (stereo partly drawn) [Compound A104, 2-(6-((2S,5R)-2,5-dimethyl-4-(1-(2-(trifluoromethyl)thiazol-4-yl)ethyl)piperazin-1-yl)-9-ethyl-3-methyl-2-oxo-3,9-dihydro-2H-purin-8-yl)acetonitrile] | 0.839 µM | > 150 µM
CCn1c(CC#N)nc2c(N3C[C@@H](C)N(C(C)c4ccc(F)cc4C(F)(F)F)C[C@@H]3C)nc(=O)n(C)c21 (single isomer, unassigned) [Compound A35b] | 0.024 µM | > 150 µM
CCn1c(CC#N)nc2c(N3C[C@@H](C)N(C(C)c4ccc5ncc(C(F)(F)F)nc5c4)C[C@@H]3C)nc(=O)n(C)c21 (stereo partly drawn) [Compound A54, 2-(6-((2S,5R)-2,5-dimethyl-4-(1-(3-(trifluoromethyl)quinoxalin-6-yl)ethyl)piperazin-1-yl)-9-ethyl-3-methyl-2-oxo-3,9-dihydro-2H-purin-8-yl)acetonitrile] | 0.037 µM | > 150 µM
CCn1c(CC#N)nc2c(N3C[C@@H](C)N(C(C)c4cccc(C(C)C)c4)C[C@@H]3C)nc(=O)n(C)c21 (mixture of isomers) [Compound A108, 2-(9-ethyl-6-((2S,5R)-4-(1-(3-isopropylphenyl)ethyl)-2,5-dimethylpiperazin-1-yl)-3-methyl-2-oxo-3,9-dihydro-2H-purin-8-yl)acetonitrile] | 0.032 µM | 95.1 µM
CCn1c(CC#N)nc2c(N3C[C@@H](C)N(C(C)c4ccnc(OC(C)C)c4)C[C@@H]3C)nc(=O)n(C)c21 (stereo partly drawn) [Compound A124, 2-(9-ethyl-6-((2S,5R)-4-(1-(2-isopropoxypyridin-4-yl)ethyl)-2,5-dimethylpiperazin-1-yl)-3-methyl-2-oxo-3,9-dihydro-2H-purin-8-yl)acetonitrile] | 0.048 µM | 111 µM
CC(c1ccc(F)cc1C(F)(F)F)N1C[C@H](C)N(c2cc(=O)n(C)c3sc(CC#N)nc23)C[C@H]1C (stereo partly drawn) [Compound A195, 2-(7-((2S,5R)-4-(1-(4-fluoro-2-(trifluoromethyl)phenyl)ethyl)-2,5-dimethylpiperazin-1-yl)-4-methyl-5-oxo-4,5-dihydrothiazolo[5,4-b]pyridin-2-yl)acetonitrile] | 0.025 µM | > 150 µM
COc1cc(F)ccc1C(C)N1C[C@H](C)N(c2c(F)c(=O)n(C)c3c2nc(CC#N)n3C)C[C@H]1C (stereo partly drawn) [Compound A16, 2-(6-fluoro-7-((2S,5R)-4-(1-(4-fluoro-2-methoxyphenyl)ethyl)-2,5-dimethylpiperazin-1-yl)-3,4-dimethyl-5-oxo-4,5-dihydro-3H-imidazo[4,5-b]pyridin-2-yl)acetonitrile] | 0.024 µM | 58.2 µM
CCn1c(CC#N)nc2c(N3C[C@@H](C)N(C(C)c4cccc(C(F)(F)F)c4)C[C@@H]3C)nc(=O)n(C)c21 (single isomer, unassigned) [Compound A42b] | 0.285 µM | 118 µM

More lines, now with the values ahead:

IC50 [1] | IC50 [2] | Structure (SMILES)
0.006 µM | 14.1 µM | CCn1c(CC#N)nc2c(N3C[C@@H](C)N(C(C)c4cc5c(cc4F)OC(C)(C)CO5)C[C@@H]3C)nc(=O)n(C)c21 (single isomer, unassigned) [Compound A156b]
0.025 µM | 103 µM | CCn1c(CC#N)nc2c(N3C[C@@H](C)N(C(C)c4ccc5c(c4)OC(C)(C)O5)C[C@@H]3C)nc(=O)n(C)c21 (mixture of isomers) [Compound A85, 2-(6-((2S,5R)-4-(1-(2,2-dimethylbenzo[d][1,3]dioxol-5-yl)ethyl)-2,5-dimethylpiperazin-1-yl)-9-ethyl-3-methyl-2-oxo-3,9-dihydro-2H-purin-8-yl)acetonitrile]
0.069 µM | 30.6 µM | CCn1c(CC#N)nc2c(N3C[C@@H](C)N(C(C)c4cc5c(cc4F)OC(C)(C)O5)C[C@@H]3C)nc(=O)n(C)c21 (single isomer, unassigned) [Compound A174b]
0.026 µM | 64.3 µM | CCn1c(CC#N)nc2c(N3C[C@@H](C)N(C(C)c4ccc5c(c4)OC(C)(CC)O5)C[C@@H]3C)nc(=O)n(C)c21 (stereo partly drawn) [Compound A168, 2-(9-ethyl-6-((2S,5R)-4-(1-(2-ethyl-2-methylbenzo[d][1,3]dioxol-5-yl)ethyl)-2,5-dimethylpiperazin-1-yl)-3-methyl-2-oxo-3,9-dihydro-2H-purin-8-yl)acetonitrile]
0.119 µM | > 150 µM | CCn1c(CC#N)nc2c(N3C[C@@H](C)N(C(C)c4ccc5c(c4)C(=O)N(C)CO5)C[C@@H]3C)nc(=O)n(C)c21 (stereo partly drawn) [Compound A192, 2-(6-((2S,5R)-2,5-dimethyl-4-(1-(3-methyl-4-oxo-3,4-dihydro-2H-benzo[e][1,3]oxazin-6-yl)ethyl)piperazin-1-yl)-9-ethyl-3-methyl-2-oxo-3,9-dihydro-2H-purin-8-yl)acetonitrile]
0.057 µM | 27.4 µM | COC[C@H]1CN(C(C)c2ccc3c(c2)OC(C)(C)CO3)[C@H](C)CN1c1nc(=O)n(C)c2c1nc(CC#N)n2C (single isomer, unassigned) [Compound A12b]
0.569 µM | > 10 µM | COCc1cc(F)ccc1C(C)N1C[C@H](C)N(c2nc(=O)n(C)c3c2nc(CC#N)n3C)C[C@H]1C (single isomer, unassigned) [Compound A27a]
0.004 µM | 111 µM | CCCn1c(CC#N)nc2c(N3C[C@@H](C)N(C(C)c4ccc5c(c4)OC(C)(C)CO5)C[C@@H]3C)nc(=O)n(C)c21 (stereo partly drawn) [Compound A88, 2-(6-((2S,5R)-4-(1-(3,3-dimethyl-2,3-dihydrobenzo[b][1,4]dioxin-6-yl)ethyl)-2,5-dimethylpiperazin-1-yl)-3-methyl-2-oxo-9-propyl-3,9-dihydro-2H-purin-8-yl)acetonitrile]
0.691 µM | 63.4 µM | CC[C@@H]1CN(c2nc(=O)n(C)c3c2nc(CC#N)n3C)[C@@H](C)CN1C(C)c1ccc2c(n1)OC(C)(C)CO2 (single isomer, unassigned) [Compound A159b]
0.018 µM | 128 µM | [2H]C([2H])([2H])n1c(CC#N)nc2c(N3C[C@@H](C)N(C(C)c4ccc(F)cc4C(F)(F)F)C[C@@H]3C)nc(=O)n(C)c21 (stereo partly drawn) [Compound A37, 2-(6-((2S,5R)-4-(1-(4-fluoro-2-(trifluoromethyl)phenyl)ethyl)-2,5-dimethylpiperazin-1-yl)-3-methyl-9-(methyl-d3)-2-oxo-3,9-dihydro-2H-purin-8-yl)acetonitrile]
0.011 µM | 51.1 µM | CCn1c(CC#N)nc2c(N3C[C@@H](C)N(C(C)c4ccc5c(c4)OC(C)(C)C5)C[C@@H]3C)nc(=O)n(C)c21 (stereo partly drawn) [Compound A97, 2-(6-((2S,5R)-4-(1-(2,2-dimethyl-2,3-dihydrobenzofuran-6-yl)ethyl)-2,5-dimethylpiperazin-1-yl)-9-ethyl-3-methyl-2-oxo-3,9-dihydro-2H-purin-8-yl)acetonitrile]
0.496 µM | 68.6 µM | CCn1c(CC#N)nc2c(N3C[C@@H](C)N(C(C)c4cc5c(cc4F)OC(C)(C)CO5)C[C@@H]3C)nc(=O)n(C)c21 (single isomer, unassigned) [Compound A156a]
0.008 µM | 9.69 µM | CC(c1ccc2c(c1F)OC(C)(C)CO2)N1C[C@H](C)N(c2nc(=O)n(C)c3c2nc(CC#N)n3C)C[C@H]1C (stereo partly drawn) [Compound A70, 2-(6-((2S,5R)-4-(1-(5-fluoro-3,3-dimethyl-2,3-dihydrobenzo[b][1,4]dioxin-6-yl)ethyl)-2,5-dimethylpiperazin-1-yl)-3,9-dimethyl-2-oxo-3,9-dihydro-2H-purin-8-yl)acetonitrile]
